Biological target: T1, haematopoietic prostaglandin D synthase (H-PGDS) (Homo sapiens, UniProt O60760)
T1 construct: Full length human H-PGDS cDNA (Invitrogen Ultimate ORF IOH13026) was amplified by PCR; 6-His (N); TEV protease cleavage site (N); made in house; host or cells: E. coli BL21 (DE3*)
Assay: H-PGDS RapidFire high throughput mass spectrometry assay (conversion of PGH2 to PGD2)
Format: biochemical
Conditions: 10 nM H-PGDS, PGH2 formed in situ by COX-2 from arachidonic acid; four parameter curve fit; read-out: Potency Range (mean pIC50) (converted)
Method: The H-PGDS RapidFire™ mass spectrometric assay monitors conversion of prostaglandin H2 (PGH2) to prostaglandin D2 (PGD2) by haematopoietic prostaglandin D synthase (H-PGDS). In the assay format described here, the substrate (PGH2) is formed in situ by the action of cyclooxygenase-2 on arachidonic acid. This first step is set up to be fast, and generates a burst of PGH2 at ˜10 μM. The PGH2 is then further converted to PGD2 by the H-PGDS enzyme. […] Plates are then read on the RapidFire™ high throughput solid phase extraction system (Agilent) which incorporates a solid phase extraction step coupled to a triple quadrupole mass spectrometer (AB SCIEX). Relative levels of PGD2 and PGF2α, which acts as a surrogate for substrate, are measured and a percent conversion calculated. Inhibitors are characterised as compounds which lower the conversion of PGH2 to PGD2.
Full length human H-PGDS cDNA (Invitrogen Ultimate ORF IOH13026) was amplified by PCR with the addition of a 5′ 6-His tag and TEV protease cleavage site. The PCR product was digested with NdeI and XhoI and ligated into pET22b+ (Merck Novagen®). Expression was carried out in E. coli strain BL21 (DE3*) using auto-induction Overnight Express™ Instant TB medium (Merck Novagen®) supplemented with 1% glycerol. The culture was first grown at 37° C. and the temperature was reduced to 25° C. when OD600 reached 2.0. Cells were harvested by centrifugation after a further 18 hours. 10 g of E. coli cell pellet was suspended to a total volume of 80 mL in lysis buffer (20 mM Tris-Cl pH 7.5, 300 mM NaCl, 20 mM imidazole, 5 mM β-mercaptoethanol, 10% glycerol). 1 mg/mL protease inhibitors (Protease Inhibitor Cocktail Set III, Merck Calbiochem®) and 1 mg/mL lysozyme were added to the cell suspension. The suspension was then sonicated for 5 min (UltraSonic Processor VCX 750, Cole-Parmer Instrument Co.) with a micro probe (50% amplitude, 10 sec on/off) and then centrifuged at 100,000 g for 90 minutes (at 4° C.). The supernatant was loaded onto a Ni-NTA HiTrap column (5 mL, GE Healthcare, pre-equilibrated in lysis buffer). The column was washed with 10 column volumes of lysis buffer and eluted with lysis buffer containing 500 mM imidazole. The pooled protein peak fractions were concentrated using a 10 kDa centrifugal filter at 3500 g and 4° C. (Amicon Ultra-15 centrifugal filter unit with Ultracel-10 membrane from Millipore). Further purification of the concentrated protein was carried out using gel filtration chromatography on a HiLoad 26/600 Superdex 75 preparative grade column (GE Healthcare Life Sciences) using 50 mM Tris pH 7.5, 50 mM NaCl, 1 mM dithiothreitol, 1 mM MgCl2. Fractions containing the protein were pooled, concentrated as described above, and stored at −80° C.
The full length human COX-2 gene (accession number L15326) was amplified by PCR to generate an EcoRI—HindIII fragment containing an in-frame FLAG tag. This was subcloned into pFastBac 1 (Invitrogen). The COX-2 FLAG plasmid was recombined into the baculovirus genome according to the BAC-to-BAC protocol described by Invitrogen. Transfection into Spodoptera frugiperda (Sf9) insect cells was performed using Cellfectin (Invitrogen), according to the manufacturer's protocol. Super Sf9 cells were cultured in EX420 media (SAFC Biosciences) to a density of approximately 1.5×10^6 cells/mL within a wave bioreactor. Recombinant virus was added at a Multiplicity of Infection (MOI) of 5 and the culture was allowed to continue for 3 days. Cells were harvested using a continuous feed centrifuge run at 2500 g at a rate of approximately 2 L/min with cooling. The resultant cell slurry was re-centrifuged in pots (2500 g, 20 min, 4° C.) and the cell paste was stored at −80° C. 342 g of cell paste was re-suspended to a final volume of 1600 mL in a buffer of 20 mM Tris-Cl pH 7.4, 150 mM NaCl, 0.1 mM EDTA, 1.3% w/v n-octyl-[…] containing 20 Complete EDTA-free Protease Inhibitor Cocktail tablets (Roche Applied Science). […]

T1 sequence (O60760 whole entry): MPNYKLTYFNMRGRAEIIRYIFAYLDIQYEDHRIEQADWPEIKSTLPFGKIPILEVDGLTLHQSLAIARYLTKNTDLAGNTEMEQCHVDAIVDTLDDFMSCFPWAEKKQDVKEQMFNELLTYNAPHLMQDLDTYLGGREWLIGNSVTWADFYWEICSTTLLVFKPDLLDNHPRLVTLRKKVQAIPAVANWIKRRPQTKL

Row | SMILES | IC50
1 | C[C@H]1CCN1c1cc2ncc(C(=O)N[C@@H]3C(=O)NCC3(C)C)cc2cn1 [Example 78, N—((S)-4,4-Dimethyl-2-oxopyrrolidin-3-yl)-7-((S)-2-methylazetidin-1-yl)-1,6-naphthyridine-3-carboxamide] | 100 to 1000 nM
2 | CC(C)(O)[C@H]1CC[C@H](NC(=O)c2cnc3nc(NCC(F)F)ccc3c2)CC1 [Example 16, 7-((2,2-Difluoroethyl)amino)-N-(trans-4-(2-hydroxypropan-2-yl)cyclohexyl)-1,8-naphthyridine-3-carboxamide] | 100 to 1000 nM
3 | CC(C)(O)[C@H]1C[C@H](NC(=O)c2cnc3nc(C4CC4)c(Cl)cc3c2)C1 [Example 73, 6-Chloro-7-cyclopropyl-N-(trans-3-(2-hydroxypropan-2-yl)cyclobutyl)-1,8-naphthyridine-3-carboxamide] | < 10 nM
4 | O=C(N[C@H]1CCNC1=O)c1cnc2nc(C3CC3)ccc2c1 [Example 44, (S)-7-Cyclopropyl-N-(2-oxopyrrolidin-3-yl)-1,8-naphthyridine-3-carboxamide] | 10 to 79.4 nM
5 | C[C@@H]1CNC(=O)[C@H]1NC(=O)c1cnc2cc(N3CC[C@@H]3C)ncc2c1 [Example 28, N-((3S,4R)-4-Methyl-2-oxopyrrolidin-3-yl)-7-((S)-2-methylazetidin-1-yl)-1,6-naphthyridine-3-carboxamide] | 10 to 79.4 nM
6 | CC(C)(O)[C@H]1CC[C@H](NC(=O)c2cnc3nc(N4CC(F)C4)ccc3c2)CC1 [Example 6, 7-(3-Fluoroazetidin-1-yl)-N-(trans-4-(2-hydroxypropan-2-yl)cyclohexyl)-1,8-naphthyridine-3-carboxamide] | 10 to 79.4 nM
7 | C[C@]1(O)C[C@@H](NC(=O)c2cnc3nc(C4CC4)ccc3c2)C1 [Example 45, 7-Cyclopropyl-N-((1s,3s)-3-hydroxy-3-methylcyclobutyl)-1,8-naphthyridine-3-carboxamide] | 100 to 1000 nM
8 | CC(C)(O)[C@H]1CC[C@H](NC(=O)c2cnc3ncccc3c2)CC1 [Example 2, N-(trans-4-(2-Hydroxypropan-2-yl)cyclohexyl)-1,8-naphthyridine-3-carboxamide] | 1260 to 10000 nM
9 | CC(C)(O)[C@H]1CC[C@H](NC(=O)c2cnc3nc(C4CC4)c(Cl)cc3c2)CC1 [Example 27, 6-Chloro-7-cyclopropyl-N-((trans)-4-(2-hydroxypropan-2-yl)cyclohexyl)-1,8-naphthyridine-3-carboxamide] | < 10 nM
10 | CC(C)(O)[C@H]1CC[C@H](NC(=O)c2cnc3cc(N4CC(F)C4)ncc3c2)CC1 [Example 3, 7-(3-Fluoroazetidin-1-yl)-N-(trans-4-(2-hydroxypropan-2-yl)cyclohexyl)-1,6-naphthyridine-3-carboxamide] | 10 to 79.4 nM
11 | C[C@]1(O)C[C@@H](NC(=O)c2cnc3nc(C4CC4)c(Cl)cc3c2)C1 [Example 76, 6-Chloro-7-cyclopropyl-N-((1s,3s)-3-hydroxy-3-methylcyclobutyl)-1,8-naphthyridine-3-carboxamide] | < 10 nM
12 | CCOc1ccc2cc(C(=O)N[C@H]3CC[C@H](C(C)(C)O)CC3)cnc2n1 [Example 56, 7-Ethoxy-N-(trans-4-(2-hydroxypropan-2-yl)cyclohexyl)-1,8-naphthyridine-3-carboxamide] | 10 to 79.4 nM
13 | O=C(N[C@H]1CCNC1=O)c1cnc2cc(C3CC3)ncc2c1 [Example 29, (S)-7-Cyclopropyl-N-(2-oxopyrrolidin-3-yl)-1,6-naphthyridine-3-carboxamide] | 10 to 79.4 nM
14 | C[C@]1(O)C[C@H](NC(=O)c2cnc3cc(C4CC4)ncc3c2)C1 [Example 41, 7-Cyclopropyl-N-((1r,3s)-3-hydroxy-3-methylcyclobutyl)-1,6-naphthyridine-3-carboxamide] | 100 to 1000 nM
15 | CC(C)(O)[C@H]1CC[C@H](NC(=O)c2cnc3nc(N4CCC4)ccc3c2)CC1 [Example 5, 7-(Azetidin-1-yl)-N-(trans-4-(2-hydroxypropan-2-yl)cyclohexyl)-1,8-naphthyridine-3-carboxamide] | < 10 nM
16 | C[C@H]1CCN1c1nc2ncc(C(=O)N[C@H]3C[C@H](C(C)(C)O)C3)cc2cc1Cl [Example 65, 6-Chloro-N-(trans-3-(2-hydroxypropan-2-yl)cyclobutyl)-7-((S)-2-methylazetidin-1-yl)-1,8-naphthyridine-3-carboxamide] | < 10 nM
17 | C[C@]1(O)C[C@H](NC(=O)c2cnc3nc(C4CC4)c(Cl)cc3c2)C1 [Example 75, 6-Chloro-7-cyclopropyl-N-((1r,3r)-3-hydroxy-3-methylcyclobutyl)-1,8-naphthyridine-3-carboxamide] | 10 to 79.4 nM
18 | C[C@H]1CCN1c1ccc2cc(C(=O)N[C@H]3CC[C@H](C(C)(C)O)CC3)cnc2n1 [Example 9, N-(trans-4-(2-Hydroxypropan-2-yl)cyclohexyl)-7-((S)-2-methylazetidin-1-yl)-1,8-naphthyridine-3-carboxamide] | < 10 nM
19 | O=C(N[C@H]1C[C@H](N[C@H](CO)C(F)(F)F)C1)c1cnc2nc(C3CC3)ccc2c1 [Example 69, 7-Cyclopropyl-N-(trans-3-(((R)-1,1,1-trifluoro-3-hydroxypropan-2-yl)amino)cyclobutyl)-1,8-naphthyridine-3-carboxamide] | 10 to 79.4 nM
20 | C[C@H]1CCN1c1nc2ncc(C(=O)N[C@H]3C[C@@](C)(O)C3)cc2cc1Cl [Example 63, 6-chloro-N-((1s,3R)-3-hydroxy-3-methylcyclobutyl)-7-((S)-2-methylazetidin-1-yl)-1,8-naphthyridine-3-carboxamide] | < 10 nM
21 | COc1cc2ncc(C(=O)N[C@H]3CC[C@H](C(C)(C)O)CC3)cc2cn1 [Example 51, N-(trans-4-(2-Hydroxypropan-2-yl)cyclohexyl)-7-methoxy-1,6-naphthyridine-3-carboxamide] | 10 to 79.4 nM
22 | CC(C)(O)[C@H]1CC[C@H](NC(=O)c2cnc3nc(OCC(F)(F)F)ccc3c2)CC1 [Example 55, N-(trans-4-(2-Hydroxypropan-2-yl)cyclohexyl)-7-(2,2,2-trifluoroethoxy)-1,8-naphthyridine-3-carboxamide] | 100 to 1000 nM
23 | C[C@]1(O)C[C@@H](NC(=O)c2cnc3cc(N4CCC4)ncc3c2)C1 [Example 15, 7-(Azetidin-1-yl)-N-((1s,3s)-3-hydroxy-3-methylcyclobutyl)-1,6-naphthyridine-3-carboxamide] | 10 to 79.4 nM
24 | CC(C)(O)C1CC2(CC(NC(=O)c3cnc4nc(C5CC5)ccc4c3)C2)C1 (racemic) [Example 49, 7-Cyclopropyl-N-(6-(2-hydroxypropan-2-yl)spiro[3.3]heptan-2-yl)-1,8-naphthyridine-3-carboxamide] | 10 to 79.4 nM
25 | CC(C)(O)C1CC2(CC(NC(=O)c3cnc4cc(C5CC5)ncc4c3)C2)C1 (racemic) [Example 34, 7-Cyclopropyl-N-(6-(2-hydroxypropan-2-yl)spiro[3.3]heptan-2-yl)-1,6-naphthyridine-3-carboxamide] | < 10 nM
26 | C[C@@H]1CCN1c1ccc2cc(C(=O)N[C@H]3CC[C@H](C(C)(C)O)CC3)cnc2n1 [Example 8, N-(trans-4-(2-Hydroxypropan-2-yl)cyclohexyl)-7-((R)-2-methylazetidin-1-yl)-1,8-naphthyridine-3-carboxamide] | 100 to 1000 nM

Reference: patent publication US11149035B2, “Chemical compounds as H—PGDS inhibitors” (GlaxoSmithKline Intellectual Property Development Limited, priority 2017, dated 2021)
